Read-outs that look alike come from different tables or passages of the source.
Experiments:
[1] = system: NF-κB; test: NF-κB levels by Western blot analysis; format: cell-based, human; conditions: NCTC 2544 stimulated with IFN-γ and histamine, 10 µM, 48 h, in words
Text: The treatment of keratinocyte cell line NCTC 2544 with 200 U/mL of IFN-γ and 10^−4 M of H increased NF-κB levels compared to untreated cells. IFN-γ is an essential cytokine in amplifying inflammatory reactions, as it stimulates the synthesis of chemokines that attract inflammatory cells and induces expression of molecules important for the retention and activation of T cells. We employed both IFN-γ and histamine because they use distinct signal transduction pathways, and this can lead to a stronger activation of inflammatory genes. […] Stimulated keratinocytes were treated with compounds 22 and 23 and the levels of NF-κB were measured after 48 h. […]
The normal human keratinocyte cell line NCTC 2544 was provided by Interlab Cell Line Collection Genoa (Genova, Italy) and cultured in Minimum Essential Medium (MEM) (Sigma-Aldrich, Milan, Italy) containing 10% fetal calf serum, 100 U/mL penicillin and 100 μg/mL streptomycin at 37 °C in a humidified, 95% air/5% CO2 atmosphere. […] A day before the experiment, cells were trypsinized, counted, and plated either in 96 wells or in 6 well plates. […]
The expression of nuclear factor kappa-light-chain-enhancer of activated B cells (NF-κB) was evaluated by Western blot analysis. […] Bands were measured densitometrically and their relative density was calculated based on the density of the […] in each sample. […]

[2] = Oxygen Radical Absorbance Capacity (ORAC) assay; conditions: for ORAC UNITs: fluorescein 10 nM, AAPH 100 mM, 37 °C, pH 7.0, mean ± SD (n = 3), Trolox = 1 ORAC Units
Text: Free radicals and ROS are highly reactive molecules that are generated by normal cellular processes. They react with cellular components, damaging DNA, carbohydrates, proteins, and lipids causing cellular and tissue injury. Although organisms have developed complex antioxidant systems to protect themselves from oxidative substances, an excess of ROS production can lead to inflammation and several disease state. ORAC test measures both lipophilic and hydrophilic antioxidant capacity and determines the ability of antioxidants to protect proteins from damage caused by free radicals. ORAC assay has been widely accepted as a standard in vitro to measure the antioxidant activity of synthetic compounds, measuring their capacity to transfer hydrogen atom. The assay measures the loss of fluorescence over time due to peroxyl-radical formation by the breakdown of 2,2′-azobis-2-methyl-propanimidamide dihydrochloride (AAPH). 6-Hydroxy-2,5,7,8-tetramethylchroman-2-carboxylic acid (Trolox), a water soluble vitamin E analog, is a positive control that inhibits the fluorescein decay in a dose dependent manner. The ORAC assay is a kinetic assay measuring fluorescein decay and antioxidant protection over time.
The ORAC assay was performed as previously reported by Cao et al.. The measurements were carried out on a Wallac 1420 Victor^3 96-well plate reader (EG & Wallac, Turku, Finland) with fluorescence filter ([…]). Fluorescein (10 nM) was the fluorescence probe and target molecule for free radical attack from AAPH (100 mM) as peroxyl radical generator. The reaction was conducted at 37 °C at pH 7.0 with Trolox (12.5 μM) as control standard and phosphate buffer as blank. Compounds 13–19 and 22–23 were appropriately diluted with DMSO/buffer (1:10) prior to analysis. The fluorescein fluorescence was recorded every 2 min after addition of AAPH. All measurements were expressed relative to the initial reading. One blank, one standard, and a maximum of 10 samples were analyzed at the same time. Each measure was repeated at least three times. The ORAC value refers to the net protection area under the quenching curve of fluorescein in the presence of an antioxidant. The final results (ORAC value) were calculated and expressed using Trolox equivalents (TE) per gram of extract (TE/g):ORAC value (μM) = K(S sample − S blank)/(S Trolox − S blank)(1) where K is a sample dilution factor, S is the area under the fluorescence decay curve of the sample, Trolox or blank. This area was calculated with Origin®7 (OriginLab Corporation, Northampton, MA, USA).

[3] = biological target: T1, human recombinant MMP-9 (Homo sapiens, UniProt P14780); test: MMP-9 fluorimetric assay; format: biochemical
T1 construct: using 10 nM of proteolytic enzyme (catalytic domains of MMP-9 (Biomol, Inc.)); purchased Biomol, Inc
T1 sequence (P14780 107-444 limits assumed): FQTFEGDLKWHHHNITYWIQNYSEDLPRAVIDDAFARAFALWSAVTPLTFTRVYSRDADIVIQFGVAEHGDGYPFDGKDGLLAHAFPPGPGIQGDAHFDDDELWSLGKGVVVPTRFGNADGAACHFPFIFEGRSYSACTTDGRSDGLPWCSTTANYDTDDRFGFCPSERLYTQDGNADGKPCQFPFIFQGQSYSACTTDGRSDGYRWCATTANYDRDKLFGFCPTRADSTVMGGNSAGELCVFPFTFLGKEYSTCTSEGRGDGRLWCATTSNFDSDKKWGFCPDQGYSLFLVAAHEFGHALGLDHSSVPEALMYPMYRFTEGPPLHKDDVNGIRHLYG
Protocol: The synthesized compounds 13–19, 22 and 23 were tested for their in vitro ability to inhibit human recombinant MMP-9. Table 2 reports the results of this inhibition assay, expressed as IC50 (µM). […] We used as positive control a potent MMPs inhibitor, NNGH (N-isobutyl-N-(4-methoxy-phenylsulfonyl)glycylhydroxamic acid).
The compounds were evaluated for their ability to inhibit the hydrolysis of fluorescence-quenched peptide substrate Mca-Pro-Leu-Gly-Leu-Dpa-Ala-Arg-NH2 (Biomol, Inc., Enzo Life Sciences, Inc., Farmingdale, NY, USA). The MMP-9 assays were performed in 50 mM HEPES buffer containing 5 mM CaCl2, 0.1 mM ZnCl2, 0.05% Brij-35, at pH 7, using 10 nM of proteolytic enzyme (catalytic domains of MMP-9 (Biomol, Inc.) and 350 nM of peptide substrate. The enzyme was incubated at 25 °C with increasing concentration (0.0004, 0.004, 0.04, 0.4, 4, 40, 400 µM) of compounds, and the fluorescence (excitation max 328 nm; emission max 393 nm) was measured for 3 min after the addition of the substrate using a Victor Wallac 1420 Multilabel Counters fluorimeter (Perkin Elmer, Waltham, MA, USA). The fluorescence values of the samples were plotted against the time with a linear regression fit, using the Origin software, version 7 (Origin Lab Corporation, Northampton, MA, USA). The slope of the line value for each inhibitor concentrations was obtained where an increase of the slope corresponds to a decrease of inhibitory activity. Subsequently, the IC50 values were obtained from a non-linear regression procedure (log inhibitor vs. response) with a variables slope of the regression line (Y) and the molar inhibitor concentration (X), using the software Origin®7 (Origin Lab Corporation). The IC50 value was obtained from the equation Y = P1/(1 + X/P2). NNGH (N-Isobutyl-N-(4-methoxyphenylsulfonyl)glycylhydroxamic acid) a potent MMPs inhibitor was used as a positive control.

| melting point [°C] | IC50 ([3]; read-out: IC50 (MMP-9)) [nM] | IC50 ([3]; catalytic domain of MMP-9 10 nM, substrate 350 nM, 25 °C, pH 7, mean ± SD (n = 3), n.a. = not active, read-out: IC50 Value) [nM] | Structure (SMILES) | effect on NF-κB release [1] | ORAC value [2] [TE/µmol] | ORAC UNITs [2] | antioxidant activity in words ([2]; delay of fluorescence reduction of fluorescein-AAPH solution) |
| --- | --- | --- | --- | --- | --- | --- | --- |
| 137 to 140 | 40 |  | CC(C(=O)NN1C(=O)CSC1c1ccc(C(=O)O)cc1)c1nsc2ccccc12 (stereo not shown) [Compound 23, 4-(3-{[2-(1,2-Benzothiazol-3-yl)propanoyl]amino}-4-oxo-1,3-thiazolidin-2-yl)benzoic acid] | reduced NF-κB release | 0.53 | 0.53 ± 0.17 ORAC unit (μmol of Trolox equi |  |
| 257 to 259 |  | 300 ± 50 | CC(C(=O)NN1C(=O)CSC1c1ccc(O)cc1)c1nsc2ccccc12 (stereo not shown) [Compound 22, 2-(1,2-Benzothiazol-3-yl)-N-[2-(4-hydroxyphenyl)-4-oxo-1,3-thiazolidin-3-yl]propanamide] | reduced NF-κB release |  | 1.24 ± 0.09 ORAC unit (μmol of Trolox equi | excellent antioxidant effectiveness |

Reference: article PMC6017844, “4-Thiazolidinone Derivatives as MMP Inhibitors in Tissue Damage: Synthesis, Biological Evaluation and Docking Studies” (Molecules : A Journal of Synthetic Chemistry and Natural …, 2018)
